# Values joined by “and” are separate entries in the source; they are usually repeats but may differ in a detail not shown here. Equal values may be shown once.
# Tests used:
# [1] = biological target: T1, 70S pre-IC (50S joining to 30S IC) (Escherichia coli, UniProt P0A705); assay: 70S pre-IC formation by light scattering, stopped-flow; format: biochemical; design: K1, best-fit value / k2, best-fit value: unit not given here; settings: for A0, best-fit value / K1, best-fit value / k2, best-fit value: fit Y=A0+A1*exp(-K1*x)+k2*x; for kfast (s-1) Avg: light scattering
# T1 construct: 6xHis (N); made in house
# T1 sequence (P0A705 whole entry, looked up): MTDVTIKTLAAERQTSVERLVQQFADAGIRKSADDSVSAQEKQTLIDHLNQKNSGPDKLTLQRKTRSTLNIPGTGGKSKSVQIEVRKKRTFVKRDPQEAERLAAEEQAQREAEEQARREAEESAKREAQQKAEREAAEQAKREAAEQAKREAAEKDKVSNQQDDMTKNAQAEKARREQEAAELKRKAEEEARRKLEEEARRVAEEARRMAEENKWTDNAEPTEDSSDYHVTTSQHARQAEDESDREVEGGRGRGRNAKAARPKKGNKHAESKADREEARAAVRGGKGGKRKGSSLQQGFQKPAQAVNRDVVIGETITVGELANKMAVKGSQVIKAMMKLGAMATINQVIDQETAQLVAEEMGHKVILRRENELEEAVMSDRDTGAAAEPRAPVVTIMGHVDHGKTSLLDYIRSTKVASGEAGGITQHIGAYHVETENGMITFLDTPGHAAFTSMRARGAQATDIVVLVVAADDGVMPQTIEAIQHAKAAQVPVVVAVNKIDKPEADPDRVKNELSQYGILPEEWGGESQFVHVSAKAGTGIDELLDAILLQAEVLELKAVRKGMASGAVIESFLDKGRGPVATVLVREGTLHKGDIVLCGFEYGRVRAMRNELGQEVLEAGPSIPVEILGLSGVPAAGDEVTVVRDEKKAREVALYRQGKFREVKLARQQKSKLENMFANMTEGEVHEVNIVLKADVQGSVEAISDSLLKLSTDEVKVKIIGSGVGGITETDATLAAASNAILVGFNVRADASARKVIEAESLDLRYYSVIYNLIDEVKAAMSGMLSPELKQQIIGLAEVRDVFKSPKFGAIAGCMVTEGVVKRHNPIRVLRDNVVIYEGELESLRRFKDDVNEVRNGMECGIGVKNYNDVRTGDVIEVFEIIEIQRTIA
# Experimental: Continuous lines indicate nonlinear regression fittings with a quadratic equation. Three measurements were performed; mean and standard deviation are plotted (S1 Data). (B) as (A) to measure the concentration dependence for each tested guanosine nucleotide at constant IF2 (1 μM). […] Continuous lines show best fits using exponential functions. (D) Formation of 70S IC as measured by Bpy-tRNAi accommodation in the P site of the ribosome; 0.1 μM 30S ICs were formed with Bpy-tRNAi and rapidly mixed with 0.3 μM 50S subunits on a stopped-flow apparatus as described in [14]. Colors are as in (C). Continuous lines show best fits using an exponential function for a single reaction step. Each stopped-flow trace results from the mean of 5 to 7 replicates.
# (A) Scheme of 70S IC formation. […] Time traces were analyzed by nonlinear regression with exponential terms. […] Formation of 70S IC, as measured by Bpy-tRNAi accommodation in the absence (F) or presence of 200 μM ppGpp (G). Time traces were analyzed by nonlinear regression with one exponential term. […] Continuous lines show best fits using an exponential function for a single reaction step. All time traces are mean values of 5 to 10 replicates. Bar graphs show mean and standard errors (error bars) derived from the nonlinear regression fitting (D,E,H,I) (S1 Data).
# To measure 70S pre-IC formation, a SX-20 stopped-flow instrument (Applied Photophysics, Leatherhead, UK) was set up for LS recording with an excitation wavelength of 430 nm. Scattered light was measured at an angle of 90° without a filter. Pseudo first-order conditions were approximated by using ≥3-fold excess of 50S subunits over 30S ICs; 0.2 μM 30S ICs were rapidly mixed in the instrument with 0.6 μM 50S at 25 °C. Bpy-tRNAi accommodation was measured essentially as described elsewhere. Briefly, 0.2 μM 30S ICs were formed using Bpy-tRNAi and rapidly mixed with 0.6 μM 50S at 25 °C. Fluorescence was excited at 470 nm and measured after a 495-nm longpass filter. Individual traces (6–11 traces) were averaged, and the resulting kinetic curve was approximated by single (F = A0 + A1*exp (-kapp1*t)) or double (F = A0 + A1*exp (-kapp1*t) + A2*exp (-kapp2*t)) exponential fit using Graphpad Prism 6.0 software (GraphPad, San Diego, California).
# [2] = biological target: T2, IF2-bound 30S IC (Escherichia coli, UniProt P0A705); assay: 30S IC formation by MST, guanosine nucleotide titration; format: binding; settings: for MST Average / MST Replicates (a.u.): Fig 2B (GDP/ppGpp series);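 on MST Average: lower thermophoresis signal means Bpy-tRNAi dissociation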;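 on MST Replicates (a.u.): lower thermophoresis signal means Bpy-tRNAi dissociation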
# T2 construct: 6xHis (N); made in house
# T2 sequence (P0A705 whole entry, looked up): as above
# Method in brief: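 Binding of fluorescently labelled initiator tRNA (Bpy-tRNAi) to E. coli 30S subunits followed by microscale thermophoresis, titrating guanosine nucleotides at constant 1 μM IF2. Dissociation constants from quadratic nonlinear fits of Ff/Fi versus ligand concentration; three measurements, mean ± SD.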
# [3] = biological target: T3, 30S-bound IF2 (30S IC) (Escherichia coli, UniProt P0A705); assay: ppGpp (or GDP) to GTP competitive assay for 30S IC formation by MST; format: binding; settings: mInfA
# T3 construct: 6xHis (N); made in house
# T3 sequence (P0A705 whole entry, looked up): as above
# Experimental: MST was calculated from the respective fluorescence time dependencies (S3 Fig). […] Symbols as in (B). […] Continuous lines indicate nonlinear regression fittings with quadratic (B and E) or same-site competition (G) functions. Three measurements were performed; mean and standard deviations are plotted (S1 Data).
# […] Symbols are as indicated, 3 measurements were performed, and mean and standard deviation are plotted (S1 Data). Continuous lines show nonlinear regression fittings with a same-site inhibition model. […] (PDF) Click here for additional data file.
structure (smiles),measurement,setting,value
Nc1nc2c(ncn2[C@@H]2O[C@H](COP(=O)(O)OP(=O)(O)O)[C@@H](OP(=O)(O)OP(=O)(O)O)[C@H]2O)c(=O)[nH]1 [ppGpp],efficiency (amplitude) of 70S pre-IC formation,"[1]; 0.2 mM nucleotide, no GTP",reduced efficiencies
same,rapid 70S pre-IC formation in the absence of GTP,"[1]; 0.2 mM nucleotide, noncompetitive (S6 Fig)",negligible
same,"A0, best-fit value",[1]; mInfA,1.01
same,"K1, best-fit value",[1]; mInfA,1.203 and 1.20
same,"k2, best-fit value",[1]; mInfA,0.0007 and 0.000671
same,"A0, best-fit value",[1]; mMF1,1.01
same,"K1, best-fit value",[1]; mMF1,2.759 and 2.76
same,"k2, best-fit value",[1]; mMF1,0.0007 and 0.000692
same,LS amplitude (a.u.) Avg,[1]; mRNA mInfA,0.011 a.u.
same,kfast (s-1) Avg,[1]; mRNA mInfA,1.20 s⁻¹
same,LS amplitude (a.u.) Avg,[1]; mRNA mMF1,0.012 a.u.
same,kfast (s-1) Avg,[1]; mRNA mMF1,2.76 s⁻¹
same,LS amplitude (a.u.) Avg,[1]; mRNA mTufA,0.035 a.u.
same,kfast (s-1) Avg,[1]; mRNA mTufA,3.76 s⁻¹
same,"A0, best-fit value",[1]; mTufA,1.03
same,"K1, best-fit value",[1]; mTufA,3.763 and 3.76
same,"k2, best-fit value",[1]; mTufA,0.0010 and 0.00104
same,MST Average,[2]; nucleotide 0.13 µM,936.81 a.u.
same,MST Replicates (a.u.),"[2]; nucleotide 0.13 µM, constant IF2 (1 μM)",935.73 a.u. and 937.32 a.u. and 936.20 a.u. and 937.97 a.u.
same,MST Average,[2]; nucleotide 0.25 µM,935.17 a.u.
same,MST Replicates (a.u.),[2]; nucleotide 0.25 µM,933.09 a.u. and 935.35 a.u. and 935.04 a.u. and 937.21 a.u.
same,MST Average,[2]; nucleotide 0.50 µM,935.42 a.u.
same,MST Replicates (a.u.),[2]; nucleotide 0.50 µM,934.19 a.u. and 935.54 a.u. and 934.92 a.u. and 937.01 a.u.
same,MST Average,[2]; nucleotide 1.00 µM,934.04 a.u.
same,MST Replicates (a.u.),[2]; nucleotide 1.00 µM,932.40 a.u. and 934.21 a.u. and 934.12 a.u. and 935.41 a.u.
same,MST Average,[2]; nucleotide 2.00 µM,933.55 a.u.
same,MST Replicates (a.u.),[2]; nucleotide 2.00 µM,931.48 a.u. and 933.31 a.u. and 934.38 a.u. and 935.04 a.u.
same,MST Average,[2]; nucleotide 4.00 µM,931.78 a.u.
same,MST Replicates (a.u.),[2]; nucleotide 4.00 µM,930.04 a.u. and 931.00 a.u. and 932.61 a.u. and 933.45 a.u.
same,MST Average,[2]; nucleotide 8.00 µM,932.68 a.u.
same,MST Replicates (a.u.),[2]; nucleotide 8.00 µM,930.98 a.u. and 932.59 a.u. and 933.05 a.u. and 934.12 a.u.
same,MST Average,[2]; nucleotide 16.00 µM,932.30 a.u.
same,MST Replicates (a.u.),[2]; nucleotide 16.00 µM,931.44 a.u. and 932.29 a.u. and 931.81 a.u. and 933.65 a.u.
same,MST Average,[2]; nucleotide 31.00 µM,930.81 a.u.
same,MST Replicates (a.u.),[2]; nucleotide 31.00 µM,928.79 a.u. and 930.49 a.u. and 930.93 a.u. and 933.04 a.u.
same,MST Average,[2]; nucleotide 62.00 µM,932.86 a.u.
same,MST Replicates (a.u.),[2]; nucleotide 62.00 µM,931.23 a.u. and 932.53 a.u. and 932.57 a.u. and 935.11 a.u.
same,MST Average,[2]; nucleotide 125.00 µM,932.91 a.u.
same,MST Replicates (a.u.),[2]; nucleotide 125.00 µM,931.17 a.u. and 932.39 a.u. and 933.25 a.u. and 934.84 a.u.
same,promotion of Bpy-tRNAi binding (thermophoresis) in guanosine nucleotide titration,[2]; constant IF2 (1 μM),failed to promote Bpy-tRNAi binding at any concentration
same,MST Average,[3]; Log [ppGpp] 0.29,1046.47 a.u.
same,MST Average,[3]; Log [ppGpp] 0.59,1038.08 a.u.
same,MST Average,[3]; Log [ppGpp] 0.89,1028.93 a.u.
same,MST Average,[3]; Log [ppGpp] 1.19,1018.24 a.u.
same,MST Replicates (a.u.),[3]; Log [ppGpp] 1.19,1017.94 a.u. and 1018.60 a.u. and 1018.17 a.u.
same,MST Average,[3]; Log [ppGpp] 1.49,1003.04 a.u.
same,MST Replicates (a.u.),[3]; Log [ppGpp] 1.49,1002.79 a.u. and 1003.03 a.u. and 1003.30 a.u.
same,MST Average,[3]; Log [ppGpp] 1.80,986.30 a.u.
same,MST Replicates (a.u.),[3]; Log [ppGpp] 1.80,985.49 a.u. and 986.54 a.u. and 986.87 a.u.
same,MST Average,[3]; Log [ppGpp] 2.10,973.31 a.u.

# Reference: paper PMC7010297, “How the initiating ribosome copes with ppGpp to translate mRNAs” (PLoS Biology, 2020)
